Data from ChEMBL document CHEMBL1201862, “PubChem BioAssay data set” (2004).
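Results reflect a 48-hour exposure of cells in 96-well plates to compound at five concentrations. GI50: concentration for 50% inhibition of growth.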 The source made the active and inactive calls. Cut-off read from the data, not from the text of the source: active = GI50 up to about 1.1 µM and inactive = higher.

How the values were obtained:
Assay in all cases: growth of human tumour cells (NCI), 48 h
MOLT-4 = system: MOLT-4
SR = system: SR
UACC-257 = system: UACC-257
M14 = system: M14
ACHN = system: ACHN
SK-OV-3 = system: SK-OV-3
LXFL 529 = system: LXFL 529
HCC 2998 = system: HCC 2998
SK-MEL-28 = system: SK-MEL-28
NCI-H226 = system: NCI-H226
SF-295 = system: SF-295
COLO 205 = system: COLO 205
A549 = system: A549
HOP-62 = system: HOP-62
OVCAR-4 = system: OVCAR-4
OVCAR-5 = system: OVCAR-5
OVCAR-3 = system: OVCAR-3
SNB-78 = system: SNB-78
M19-MEL = system: M19-MEL
NCI-H460 = system: NCI-H460
NCI-H23 = system: NCI-H23
786-0 = system: 786-0
SF-268 = system: SF-268
UACC-62 = system: UACC-62
SK-MEL-2 = system: SK-MEL-2
HOP-92 = system: HOP-92
EKVX = system: EKVX
Malme-3M = system: Malme-3M
SN12C = system: SN12C
HL-60 = system: HL-60
KM12 = system: KM12
CCRF-CEM = system: CCRF-CEM
CAKI-1 = system: CAKI-1
NCI-H522 = system: NCI-H522
SNB-75 = system: SNB-75
K562 = system: K562
KM-20L2 = system: KM-20L2
UO-31 = system: UO-31
XF498 = system: XF498
HT-29 = system: HT-29
RPMI-8226 = system: RPMI-8226
A498 = system: A498
SW-620 = system: SW-620
OVCAR-8 = system: OVCAR-8
TK-10 = system: TK-10
SNB-19 = system: SNB-19
U-251 = system: U-251
DLD-1 = system: DLD-1
IGROV-1 = system: IGROV-1
RXF 393 = system: RXF 393
LOX IMVI = system: LOX IMVI
HCT-15 = system: HCT-15
SK-MEL-5 = system: SK-MEL-5
SF-539 = system: SF-539
HCT-116 = system: HCT-116
DMS-273 = system: DMS-273

Question: What does the source list for `N#CC(c1ccc(Cl)cc1)c1cccc(C(C#N)c2ccc(Cl)cc2)n1` (configuration not stated)?
Answer: GI50 (MOLT-4): 8.02 µM (inactive); GI50 (SR): 9.31 µM (inactive); GI50 (UACC-257): 14.1 µM (inactive); GI50 (M14): 34.8 µM (inactive); GI50 (ACHN): 10.8 µM (inactive); GI50 (SK-OV-3): 47.4 µM (inactive); GI50 (LXFL 529): 7.78 µM (inactive); GI50 (HCC 2998): 37.4 µM (inactive); GI50 (SK-MEL-28): 17 µM (inactive); GI50 (NCI-H226): 37.4 µM (inactive); GI50 (SF-295): 8.43 µM (inactive); GI50 (COLO 205): 14.4 µM (inactive); GI50 (A549): 10.6 µM (inactive); GI50 (HOP-62): 93.8 µM (inactive); GI50 (OVCAR-4): 32.6 µM (inactive); GI50 (OVCAR-5): > 100 µM (inactive); GI50 (OVCAR-3): 15.9 µM (inactive); GI50 (SNB-78): 20.7 µM (inactive); GI50 (M19-MEL): 19.6 µM (inactive); GI50 (NCI-H460): 23.1 µM (inactive); GI50 (NCI-H23): 3.95 µM (inactive); GI50 (786-0): 50.4 µM (inactive); GI50 (SF-268): 27 µM (inactive); GI50 (UACC-62): 14 µM (inactive); GI50 (SK-MEL-2): 13.7 µM (inactive); GI50 (HOP-92): 15.2 µM (inactive); GI50 (EKVX): 25 µM (inactive); GI50 (Malme-3M): 30.6 µM (inactive); GI50 (SN12C): 59.3 µM (inactive); GI50 (HL-60): 12.1 µM (inactive); GI50 (KM12): 17.6 µM (inactive); GI50 (CCRF-CEM): 25.9 µM (inactive); GI50 (CAKI-1): 16.9 µM (inactive); GI50 (NCI-H522): 17.6 µM (inactive); GI50 (SNB-75): 15.9 µM (inactive); GI50 (K562): 6.35 µM (inactive); GI50 (KM-20L2): 38.8 µM (inactive); GI50 (UO-31): 4.65 µM (inactive); GI50 (XF498): 5.13 µM (inactive); GI50 (HT-29): 19.1 µM (inactive); GI50 (RPMI-8226): 82 µM (inactive); GI50 (A498): 2.31 µM (inactive); GI50 (SW-620): 46 µM (inactive); GI50 (OVCAR-8): 55.1 µM (inactive); GI50 (TK-10): 7.29 µM (inactive); GI50 (SNB-19): 26.5 µM (inactive); GI50 (U-251): 18.1 µM (inactive); GI50 (DLD-1): 37.2 µM (inactive)

Question: Which results are given for `COC1C=CC(O)C(CO)O1` (configuration not stated)?
Answer: GI50 (MOLT-4): > 100 µM (inactive); GI50 (SR): > 100 µM (inactive); GI50 (UACC-257): > 100 µM (inactive); GI50 (M14): > 100 µM (inactive); GI50 (ACHN): > 100 µM (inactive); GI50 (SK-OV-3): > 100 µM (inactive); GI50 (LXFL 529): > 100 µM (inactive); GI50 (HCC 2998): > 100 µM (inactive); GI50 (SK-MEL-28): > 100 µM (inactive); GI50 (IGROV-1): > 100 µM (inactive); GI50 (RXF 393): > 100 µM (inactive); GI50 (SF-295): > 100 µM (inactive); GI50 (A549): > 100 µM (inactive); GI50 (HOP-62): > 100 µM (inactive); GI50 (LOX IMVI): > 100 µM (inactive); GI50 (OVCAR-4): > 100 µM (inactive); GI50 (OVCAR-5): > 100 µM (inactive); GI50 (OVCAR-3): > 100 µM (inactive); GI50 (SNB-78): > 100 µM (inactive); GI50 (M19-MEL): > 100 µM (inactive); GI50 (HCT-15): > 100 µM; GI50 (NCI-H460): > 100 µM (inactive); GI50 (NCI-H23): > 100 µM (inactive); GI50 (UACC-62): > 100 µM (inactive); GI50 (SK-MEL-2): > 100 µM (inactive); GI50 (HOP-92): > 100 µM (inactive); GI50 (EKVX): > 100 µM (inactive); GI50 (Malme-3M): > 100 µM (inactive); GI50 (SN12C): > 100 µM (inactive); GI50 (HL-60): > 100 µM (inactive); GI50 (KM12): > 100 µM (inactive); GI50 (CCRF-CEM): > 100 µM (inactive); GI50 (SK-MEL-5): > 100 µM (inactive); GI50 (NCI-H522): > 100 µM (inactive); GI50 (SNB-75): > 100 µM (inactive); GI50 (K562): > 100 µM (inactive); GI50 (KM-20L2): > 100 µM (inactive); GI50 (UO-31): > 100 µM (inactive); GI50 (XF498): > 100 µM (inactive); GI50 (HT-29): > 100 µM (inactive); GI50 (SF-539): > 100 µM (inactive); GI50 (HCT-116): > 100 µM (inactive); GI50 (SW-620): > 100 µM (inactive); GI50 (OVCAR-8): > 100 µM (inactive); GI50 (TK-10): > 100 µM (inactive); GI50 (U-251): > 100 µM (inactive); GI50 (DLD-1): > 100 µM (inactive)

Question: For `Cc1nc2c(n1C(C)(C)C)C(=O)c1ccccc1C2=O`, which GI50 (MOLT-4) is on record?
Answer: 49 µM (inactive)

Question: What about the GI50 (SR) of the same compound?
Answer: 45 µM (inactive)

Question: What about the GI50 (UACC-257) of the same compound?
Answer: 42.6 µM (inactive)

Question: What about the GI50 (M14) of the same compound?
Answer: > 100 µM (inactive)

Question: And the GI50 (ACHN)?
Answer: 48.6 µM (inactive)

Question: What about the GI50 (SK-OV-3) of the same compound?
Answer: > 100 µM (inactive)

Question: And the GI50 (LXFL 529)?
Answer: 67.9 µM (inactive)

Question: And the GI50 (HCC 2998)?
Answer: > 100 µM (inactive)

Question: What about the GI50 (SK-MEL-28) of the same compound?
Answer: > 100 µM (inactive)

Question: What about the GI50 (NCI-H226) of the same compound?
Answer: 67.9 µM (inactive)

Question: And the GI50 (IGROV-1)?
Answer: 96.6 µM (inactive)

Question: What about the GI50 (RXF 393) of the same compound?
Answer: > 100 µM (inactive)

Question: And the GI50 (SF-295)?
Answer: 87.3 µM (inactive)

Question: And the GI50 (COLO 205)?
Answer: 64.1 µM (inactive)

Question: And the GI50 (A549)?
Answer: 92 µM (inactive)

Question: And the GI50 (HOP-62)?
Answer: > 100 µM (inactive)

Question: And the GI50 (LOX IMVI)?
Answer: 41.5 µM (inactive)

Question: And the GI50 (OVCAR-4)?
Answer: 92.9 µM (inactive)

Question: And the GI50 (OVCAR-3)?
Answer: 38.6 µM (inactive)

Question: What about the GI50 (SNB-78) of the same compound?
Answer: > 100 µM (inactive)

Question: What about the GI50 (M19-MEL) of the same compound?
Answer: 24.8 µM (inactive)

Question: And the GI50 (HCT-15)?
Answer: 56.6 µM

Question: What about the GI50 (NCI-H460) of the same compound?
Answer: 36.7 µM (inactive)

Question: And the GI50 (NCI-H23)?
Answer: 37.8 µM (inactive)

Question: And the GI50 (786-0)?
Answer: > 100 µM (inactive)

Question: What about the GI50 (SF-268) of the same compound?
Answer: 54.5 µM (inactive)

Question: What about the GI50 (UACC-62) of the same compound?
Answer: 44.3 µM (inactive)

Question: What about the GI50 (SK-MEL-2) of the same compound?
Answer: 80.4 µM (inactive)

Question: What about the GI50 (HOP-92) of the same compound?
Answer: 9.31 µM (inactive)

Question: What about the GI50 (EKVX) of the same compound?
Answer: > 100 µM (inactive)

Question: What about the GI50 (Malme-3M) of the same compound?
Answer: 44.6 µM (inactive)

Question: And the GI50 (SN12C)?
Answer: 50.5 µM (inactive)

Question: What about the GI50 (HL-60) of the same compound?
Answer: 46.2 µM (inactive)

Question: What about the GI50 (KM12) of the same compound?
Answer: 74.1 µM (inactive)

Question: What about the GI50 (CCRF-CEM) of the same compound?
Answer: 73.8 µM (inactive)

Question: What about the GI50 (SK-MEL-5) of the same compound?
Answer: 38.9 µM (inactive)

Question: What about the GI50 (NCI-H522) of the same compound?
Answer: 44 µM (inactive)

Question: And the GI50 (SNB-75)?
Answer: 31.9 µM (inactive)

Question: And the GI50 (K562)?
Answer: 49.7 µM (inactive)

Question: And the GI50 (KM-20L2)?
Answer: 51.5 µM (inactive)

Question: What about the GI50 (UO-31) of the same compound?
Answer: 37.2 µM (inactive)

Question: And the GI50 (XF498)?
Answer: 44 µM (inactive)

Question: And the GI50 (HT-29)?
Answer: 44.1 µM (inactive)

Question: And the GI50 (SF-539)?
Answer: > 100 µM (inactive)

Question: What about the GI50 (HCT-116) of the same compound?
Answer: 54 µM (inactive)

Question: What about the GI50 (SW-620) of the same compound?
Answer: > 100 µM (inactive)

Question: What about the GI50 (OVCAR-8) of the same compound?
Answer: 56.8 µM (inactive)

Question: And the GI50 (TK-10)?
Answer: 82 µM (inactive)

Question: What about the GI50 (SNB-19) of the same compound?
Answer: > 100 µM (inactive)

Question: What about the GI50 (U-251) of the same compound?
Answer: 84.5 µM (inactive)

Question: What about the GI50 (DLD-1) of the same compound?
Answer: 87.3 µM (inactive)

Question: What about the GI50 (DMS-273) of the same compound?
Answer: 52.8 µM (inactive)
